Experiments:
Format in all cases: cell-based
[1] = tested on: Candida zemplinina PYCC 04-501; experiment: Glucose consumption rate in YPD shake flasks (second secondary screen); settings: 50 g/L lactic acid, pH 2.85, scale 0 to 1
Experimental: (§1) For the second secondary screen, glucose consumption was measured in YPD media containing 0 g/L malate at pH 3.0 or 200 g/L malate at pH 2.85. Shake flasks were inoculated with biomass harvested from seed flasks grown overnight to an OD600 of 6 to 10. 250 mL baffled glycolytic assay flasks (50 mL working volume) were inoculated to an OD600 of 0.1 and grown at 250 RPM and 30° C. Samples were taken throughout the time course of the assay and analyzed for glucose consumption using a 2700 Biochemistry Analyzer (Yellow Springs Instruments, YSI). The resulting data was plotted and glucose consumption rates were established.
(§2) The same procedures were utilized to screen, rate, and score the original 91 wild-type yeast strains from the primary screen with media containing 0, 30, 45, and 60 g/L lactic acid at pH 3.0 (˜80% free acid). Due to difficulties in properly scoring some very weak growth that occasionally occurred at 60 g/L, 20 strains were re-tested in the primary screen. Of these 20 strains, eight were eliminated due to very slow growth relative to the rest of the test group. The remaining 12 strains were advanced into secondary screening. The secondary screen for lactic acid was the same as that described above for malate, except for changes in concentrations and pH values. Growth rates were measured at 0 g/L lactic acid, pH 3.0 and 50 g/L lactic acid, pH 2.85, and glucose consumption rates were measured in the presence of 50 g/L lactic acid, pH 2.85. Normalized values and weighted and summed scores were calculated for each strain as described above for malate.

Saccharomyces javensis [2] = experiment: as above; settings: 50 g/L lactic acid, pH 2.85, scale 0 to 1
Experimental: as §1, §2

[3] = tested on: Saccharomyces bayanus ATCC 90739; experiment: as above; settings: 50 g/L lactic acid, pH 2.85, scale 0 to 1
Experimental: as §1, §2

[4] = tested on: Saccharomyces bulderi ATCC MYA-402; experiment: as above; settings: 50 g/L lactic acid, pH 2.85, scale 0 to 1
Experimental: as §1, §2

[5] = tested on: Candida milleri ATCC 60592; experiment: as above; settings: 50 g/L lactic acid, pH 2.85, scale 0 to 1
Experimental: as §1, §2

[6] = tested on: Candida sorbosivorans ATCC 38619; experiment: as above; settings: Candida sorosivorans; 50 g/L lactic acid, pH 2.85; scale 0 to 1
Experimental: as §1, §2

[7] = tested on: Issatchenkia orientalis CD1822; experiment: as above; settings: 50 g/L lactic acid, pH 2.85, scale 0 to 1
Experimental: as §1, §2

Candida geochares [8] = experiment: as above; settings: 50 g/L lactic acid, pH 2.85, scale 0 to 1
Experimental: as §1, §2

[9] = tested on: Kodamaea ohmeri ATCC 20282; experiment: as above; settings: 50 g/L lactic acid, pH 2.85, scale 0 to 1
Experimental: as §1, §2

[10] = tested on: Issatchenkia orientalis ATCC 24210; experiment: as above; settings: 50 g/L lactic acid, pH 2.85, scale 0 to 1
Experimental: as §1, §2

[11] = tested on: Saccharomyces bulderi ATCC MYA-404; experiment: as above; settings: 50 g/L lactic acid, pH 2.85, scale 0 to 1
Experimental: as §1, §2

[12] = tested on: Candida lambica ATCC 38617; experiment: as above; settings: 50 g/L lactic acid, pH 2.85, scale 0 to 1
Experimental: as §1, §2

[13] = tested on: Issatchenkia orientalis ATCC PTA-6658; experiment: as above; settings: 50 g/L lactic acid, pH 2.85, scale 0 to 1
Experimental: as §1, §2

[14] = tested on: Candida zemplinina PYCC 04-501; experiment: Growth rate in YPD shake flasks (first secondary screen)
Experimental: (§3) For the first secondary screen, growth rates were measured in YPD media containing 0 g/L malate at pH 3.0 or 200 g/L malate at pH 2.85. Shake flasks were inoculated with biomass harvested from seed flasks grown overnight to an OD600 of 6 to 10. 250 mL baffled growth rate flasks (50 mL working volume) were inoculated to an OD600 of 0.1 and grown at 250 rpm and 30° C. Samples were taken throughout the time course of the assay and analyzed for biomass growth via OD600. The resulting OD600 data was plotted and growth rates were established.
as §2

Saccharomyces javensis [15] = experiment: as above
Experimental: as §3, §2

[16] = tested on: Saccharomyces bayanus ATCC 90739; experiment: as above
Experimental: as §3, §2

[17] = tested on: Saccharomyces bulderi ATCC MYA-402; experiment: as above
Experimental: as §3, §2

[18] = tested on: Candida milleri ATCC 60592; experiment: as above
Experimental: as §3, §2

[19] = tested on: Candida sorbosivorans ATCC 38619; experiment: as above; settings: Candida sorosivorans, scale 0 to 1
Experimental: as §3, §2

[20] = tested on: Issatchenkia orientalis CD1822; experiment: as above
Experimental: as §3, §2

Candida geochares [21] = experiment: as above
Experimental: as §3, §2

[22] = tested on: Kodamaea ohmeri ATCC 20282; experiment: as above
Experimental: as §3, §2

[23] = tested on: Issatchenkia orientalis ATCC 24210; experiment: as above
Experimental: as §3, §2

[24] = tested on: Saccharomyces bulderi ATCC MYA-404; experiment: as above
Experimental: as §3, §2

[25] = tested on: Candida lambica ATCC 38617; experiment: as above
Experimental: as §3, §2

[26] = tested on: Issatchenkia orientalis ATCC PTA-6658; experiment: as above
Experimental: as §3, §2

Structure (SMILES): CC(O)C(=O)O (stereo not drawn) [lactic acid]
- Normalized grade: Glycolic rate [1]: 1
- Normalized grade: Glycolic rate (Saccharomyces javensis [2]): 0
- Normalized grade: Glycolic rate [3]: 0.96
- Normalized grade: Glycolic rate [4]: 1
- Normalized grade: Glycolic rate [5]: 0.92
- Normalized grade: Glycolic rate [6]: 0.59
- Normalized grade: Glycolic rate [7]: 1
- Normalized grade: Glycolic rate (Candida geochares [8]): 0.69
- Normalized grade: Glycolic rate [9]: 0.76
- Normalized grade: Glycolic rate [10]: 1
- Normalized grade: Glycolic rate [11]: 1
- Normalized grade: Glycolic rate [12]: 1
- Normalized grade: Glycolic rate [13]: 1
- Normalized grade: Growth rate slope ([14]; lactic acid, scale 0 to 1): 0.95
- Normalized grade: Growth rate 50 g/L lactic acid ([14]; pH 2.85, scale 0 to 1): 0.22
- Normalized grade: Growth rate slope (Saccharomyces javensis [15]; lactic acid, scale 0 to 1): 0.68
- Normalized grade: Growth rate 50 g/L lactic acid (Saccharomyces javensis [15]; pH 2.85, scale 0 to 1): 0.11
- Normalized grade: Growth rate slope ([16]; lactic acid, scale 0 to 1): 0.91
- Normalized grade: Growth rate 50 g/L lactic acid ([16]; pH 2.85, scale 0 to 1): 0.08
- Normalized grade: Growth rate slope ([17]; lactic acid, scale 0 to 1): 0.23
- Normalized grade: Growth rate 50 g/L lactic acid ([17]; pH 2.85, scale 0 to 1): 0.5
- Normalized grade: Growth rate slope ([18]; lactic acid, scale 0 to 1): 0.64
- Normalized grade: Growth rate 50 g/L lactic acid ([18]; pH 2.85, scale 0 to 1): 0
- Normalized grade: Growth rate slope ([19]; lactic acid): 0.95
- Normalized grade: Growth rate 50 g/L lactic acid ([19]; pH 2.85): 0.28
- Normalized grade: Growth rate slope ([20]; lactic acid, scale 0 to 1): 0.86
- Normalized grade: Growth rate 50 g/L lactic acid ([20]; pH 2.85, scale 0 to 1): 1.00
- Normalized grade: Growth rate slope (Candida geochares [21]; lactic acid, scale 0 to 1): 0.27
- Normalized grade: Growth rate 50 g/L lactic acid (Candida geochares [21]; pH 2.85, scale 0 to 1): 0.17
- Normalized grade: Growth rate slope ([22]; lactic acid, scale 0 to 1): 0
- Normalized grade: Growth rate 50 g/L lactic acid ([22]; pH 2.85, scale 0 to 1): 0.42
- Normalized grade: Growth rate slope ([23]; lactic acid, scale 0 to 1): 0.73
- Normalized grade: Growth rate 50 g/L lactic acid ([23]; pH 2.85, scale 0 to 1): 0.89
- Normalized grade: Growth rate slope ([24]; lactic acid, scale 0 to 1): 0.45
- Normalized grade: Growth rate 50 g/L lactic acid ([24]; pH 2.85, scale 0 to 1): 0.47
- Normalized grade: Growth rate slope ([25]; lactic acid, scale 0 to 1): 1
- Normalized grade: Growth rate 50 g/L lactic acid ([25]; pH 2.85, scale 0 to 1): 0.92
- Normalized grade: Growth rate slope ([26]; lactic acid, scale 0 to 1): 0.95
- Normalized grade: Growth rate 50 g/L lactic acid ([26]; pH 2.85, scale 0 to 1): 0.94
